From PMC9021288 (Nature Communications, 2022)
Several values for one entry are separate records, joined by “and”; a condition that tells them apart may be missing. Identical values can stand only once.

Legend:
[1] = Blood to plasma ratio, human
[2] = test system: Caco-2; assay: Caco-2 permeability assay; settings: pH 7.4/7.4
[3] = test system: P. falciparum 3D7; assay: Parasite reduction rate (PRR) in vitro killing rate assay; assay type: cell-based, Plasmodium falciparum
Procedure: The antimalarial killing rate was determined by GlaxoSmithKline (GSK, Tres Cantos, Madrid, Spain) as described previously. […] The number of viable parasites was determined on day 21 and 28 by counting the wells with parasite growth.

[4] = test system: AcAS-cKD P. falciparum; assay: Drug sensitivity of AcAS conditional knockdown parasites; assay type: cell-based, Plasmodium falciparum; settings: […] vs 500 nM aTc
Procedure: Replication assays were performed using a SYBR Green method as described previously. Briefly, asynchronous parasites were diluted to 0.83% parasitemia, 3% hematocrit in 30 µl medium, and added to 30 µl of diluted compounds in medium (0.1% DMSO final concentration) in black 384-wells plates. After a 72-h incubation, 30 µl of SYBR Green diluted in lysis buffer was added according to the manufacturer’s protocol (Life Technologies). Fluorescence intensity was measured on a BioTek Synergy 2 Plate Reader after 1-h incubation and was normalized to a DMSO control (100% growth) and DHA- or epoxomicin-treatment (no growth). […] Parasite survival was assessed by flow cytometry on an Accuri C6 (BD Biosciences) with BD C6 Plus software using SYBR Green and MitoTracker Deep Red FM (Life Technologies) as nuclear stain and vital dye, respectively, and data were analyzed using FlowJo (10.5.0). […] Luminescence was measured after 72 h using the Renilla-Glo(R) Luciferase Assay System (Promega E2750) and the GlomAX® Discover Multimode Microplate Reader (Promega). The luminescence values were normalized to DMSO vehicle (100% growth) and 200 nM chloroquine-treated (no growth) samples as controls.

[5] = 8-day Dose Range Finding (DRF) rat study; assay type: in vivo, Wistar Han rats
From the text: See the summary of the study design in Supplementary Table 31. Nine-week-old Wistar (Crl:WI (Han)) rats were obtained from Charles River Laboratories (Domaine des Oncins, Saint-Germain-Nuelles, France). […] Animals were examined daily for any altered clinical signs, body weights, and food consumption. Blood samples were taken at different timepoints after the test item administration, and toxicokinetic exposure assessed under the defined experimental conditions and analyzed using Phoenix (version 6.4 and 1.4) (Supplementary Table 32). Measurements included hematology and clinical chemistry measurements. Animals were euthanized and necropsied at the end of the dosing period. At necropsy, major organ systems and tissues were collected and weighed and then examined for gross lesions as well as for microscopic changes.

[6] = test system: P. falciparum NF54 male gametocytes; assay: Dual gamete formation assay, male; assay type: cell-based, Plasmodium falciparum
Procedure: After a 48-h incubation, gamete formation was stimulated by a drop in temperature (from 37 °C to 26 °C), and the addition of xanthurenic acid (2.5 µM). At 20 min after induction, exflagellation was recorded by automated time-lapse microscopy. After data collection, the plate was returned to a 26 °C incubator and incubated for 24 h. Female gamete formation was assessed by live staining with a Cy3-labelled anti-Pfs25 monoclonal antibody (1:2222) and recorded by automated microscopy.

[7] = test system: dog primary hepatocytes; assay: Hepatocyte stability, dog; assay type: in vitro ADME
[8] = biological target: T1, hCaV 1.2 (Homo sapiens, UniProt Q13936); assay: Manual patch clamp; assay type: cell-based; settings: for Minimum current: single cells and Mean, mean
T1 construct: Metrion Biosciences
T1 sequence (Q13936 whole entry): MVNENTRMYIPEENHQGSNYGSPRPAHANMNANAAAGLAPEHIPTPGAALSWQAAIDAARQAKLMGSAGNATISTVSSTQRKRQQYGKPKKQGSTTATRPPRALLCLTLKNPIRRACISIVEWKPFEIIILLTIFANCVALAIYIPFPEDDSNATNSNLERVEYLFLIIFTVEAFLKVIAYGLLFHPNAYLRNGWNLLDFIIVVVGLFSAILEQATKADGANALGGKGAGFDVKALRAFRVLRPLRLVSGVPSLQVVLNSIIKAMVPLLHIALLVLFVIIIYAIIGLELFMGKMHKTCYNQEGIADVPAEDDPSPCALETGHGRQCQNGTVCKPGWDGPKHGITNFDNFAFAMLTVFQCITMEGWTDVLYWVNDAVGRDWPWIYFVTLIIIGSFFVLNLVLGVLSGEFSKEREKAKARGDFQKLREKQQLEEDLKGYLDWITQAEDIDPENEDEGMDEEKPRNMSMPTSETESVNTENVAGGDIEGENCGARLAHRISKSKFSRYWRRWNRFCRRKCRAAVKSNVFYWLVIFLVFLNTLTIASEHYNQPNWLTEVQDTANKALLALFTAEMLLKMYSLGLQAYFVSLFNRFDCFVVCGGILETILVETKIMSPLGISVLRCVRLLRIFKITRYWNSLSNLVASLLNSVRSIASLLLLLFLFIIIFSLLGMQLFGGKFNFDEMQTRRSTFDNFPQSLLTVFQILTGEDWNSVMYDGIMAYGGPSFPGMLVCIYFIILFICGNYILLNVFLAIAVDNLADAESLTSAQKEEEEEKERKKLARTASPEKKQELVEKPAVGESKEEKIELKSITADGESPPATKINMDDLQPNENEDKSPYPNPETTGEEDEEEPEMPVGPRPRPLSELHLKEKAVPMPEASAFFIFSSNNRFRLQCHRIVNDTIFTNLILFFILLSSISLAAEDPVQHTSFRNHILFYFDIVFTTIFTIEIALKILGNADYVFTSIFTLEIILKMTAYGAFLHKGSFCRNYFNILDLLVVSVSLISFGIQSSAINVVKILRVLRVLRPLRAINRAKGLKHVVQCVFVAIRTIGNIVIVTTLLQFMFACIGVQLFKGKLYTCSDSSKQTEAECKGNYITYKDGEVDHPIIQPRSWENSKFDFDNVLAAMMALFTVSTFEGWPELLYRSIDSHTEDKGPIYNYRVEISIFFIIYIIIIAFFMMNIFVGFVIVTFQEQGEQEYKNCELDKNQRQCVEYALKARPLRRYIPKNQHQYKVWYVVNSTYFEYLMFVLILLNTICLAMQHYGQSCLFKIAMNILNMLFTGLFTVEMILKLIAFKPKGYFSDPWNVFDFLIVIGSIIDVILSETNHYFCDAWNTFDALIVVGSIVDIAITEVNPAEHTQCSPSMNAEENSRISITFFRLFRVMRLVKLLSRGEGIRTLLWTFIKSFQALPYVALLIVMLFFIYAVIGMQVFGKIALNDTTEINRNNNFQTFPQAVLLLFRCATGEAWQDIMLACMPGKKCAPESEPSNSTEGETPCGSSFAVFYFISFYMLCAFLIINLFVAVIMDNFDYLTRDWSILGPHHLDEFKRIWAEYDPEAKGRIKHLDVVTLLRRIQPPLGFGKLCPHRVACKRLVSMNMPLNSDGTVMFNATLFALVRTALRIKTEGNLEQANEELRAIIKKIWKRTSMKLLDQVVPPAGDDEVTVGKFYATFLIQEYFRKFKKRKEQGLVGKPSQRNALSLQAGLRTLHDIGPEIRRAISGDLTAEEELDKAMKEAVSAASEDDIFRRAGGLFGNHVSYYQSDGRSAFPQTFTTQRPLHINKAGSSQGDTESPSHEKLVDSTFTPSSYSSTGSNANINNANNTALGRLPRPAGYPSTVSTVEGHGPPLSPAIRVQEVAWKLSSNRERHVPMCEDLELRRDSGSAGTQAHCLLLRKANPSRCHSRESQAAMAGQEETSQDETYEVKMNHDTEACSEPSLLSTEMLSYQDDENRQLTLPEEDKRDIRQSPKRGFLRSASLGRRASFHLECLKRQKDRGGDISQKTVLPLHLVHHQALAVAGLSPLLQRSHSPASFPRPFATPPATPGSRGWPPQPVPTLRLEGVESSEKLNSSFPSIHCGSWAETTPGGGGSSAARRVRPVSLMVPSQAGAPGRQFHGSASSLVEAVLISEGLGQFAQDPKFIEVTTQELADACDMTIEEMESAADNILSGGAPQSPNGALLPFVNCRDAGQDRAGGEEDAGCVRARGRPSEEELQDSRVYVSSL
T1 sequence (Q08289 whole entry partner): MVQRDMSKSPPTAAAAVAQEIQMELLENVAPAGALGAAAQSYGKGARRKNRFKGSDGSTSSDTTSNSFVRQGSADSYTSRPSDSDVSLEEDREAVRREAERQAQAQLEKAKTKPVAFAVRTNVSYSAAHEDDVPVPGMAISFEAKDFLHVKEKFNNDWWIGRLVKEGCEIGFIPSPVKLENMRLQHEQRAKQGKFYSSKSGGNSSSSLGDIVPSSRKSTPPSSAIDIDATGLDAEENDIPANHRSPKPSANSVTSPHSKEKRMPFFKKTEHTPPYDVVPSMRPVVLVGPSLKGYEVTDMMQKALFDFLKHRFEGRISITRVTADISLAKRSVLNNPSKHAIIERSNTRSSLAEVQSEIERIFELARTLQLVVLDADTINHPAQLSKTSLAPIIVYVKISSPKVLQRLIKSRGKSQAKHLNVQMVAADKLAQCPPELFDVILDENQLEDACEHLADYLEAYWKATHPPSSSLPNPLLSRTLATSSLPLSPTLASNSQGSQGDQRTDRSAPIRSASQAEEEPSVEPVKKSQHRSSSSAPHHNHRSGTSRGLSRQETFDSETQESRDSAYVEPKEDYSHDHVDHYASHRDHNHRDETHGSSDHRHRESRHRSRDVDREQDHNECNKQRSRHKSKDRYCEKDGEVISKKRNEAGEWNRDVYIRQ
T1 sequence (P54289 25-946 partner limits assumed): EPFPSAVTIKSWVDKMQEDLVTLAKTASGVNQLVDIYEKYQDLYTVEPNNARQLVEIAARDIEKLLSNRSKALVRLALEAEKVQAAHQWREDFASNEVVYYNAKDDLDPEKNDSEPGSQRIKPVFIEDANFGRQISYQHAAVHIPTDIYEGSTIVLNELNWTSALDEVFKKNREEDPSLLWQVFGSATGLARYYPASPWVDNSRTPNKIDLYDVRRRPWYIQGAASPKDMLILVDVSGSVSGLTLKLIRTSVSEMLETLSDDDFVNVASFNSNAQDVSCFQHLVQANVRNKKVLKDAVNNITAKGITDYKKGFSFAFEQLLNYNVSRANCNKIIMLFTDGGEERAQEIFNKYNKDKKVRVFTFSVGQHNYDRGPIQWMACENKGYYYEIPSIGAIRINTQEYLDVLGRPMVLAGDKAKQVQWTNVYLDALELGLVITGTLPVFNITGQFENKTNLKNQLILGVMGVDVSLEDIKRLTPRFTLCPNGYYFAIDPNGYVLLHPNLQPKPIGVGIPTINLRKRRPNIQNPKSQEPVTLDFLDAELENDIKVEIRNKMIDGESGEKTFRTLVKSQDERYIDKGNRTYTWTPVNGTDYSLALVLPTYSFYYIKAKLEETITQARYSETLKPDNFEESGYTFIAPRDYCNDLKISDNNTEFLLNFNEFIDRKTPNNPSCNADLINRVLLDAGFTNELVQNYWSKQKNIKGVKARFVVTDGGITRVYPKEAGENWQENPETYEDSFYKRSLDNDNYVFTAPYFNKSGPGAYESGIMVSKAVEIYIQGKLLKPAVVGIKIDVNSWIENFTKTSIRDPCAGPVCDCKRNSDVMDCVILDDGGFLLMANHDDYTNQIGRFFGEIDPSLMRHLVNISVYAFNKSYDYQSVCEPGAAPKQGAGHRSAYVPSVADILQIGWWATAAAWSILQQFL
T1 sequence (P54289 947-1103 partner limits assumed): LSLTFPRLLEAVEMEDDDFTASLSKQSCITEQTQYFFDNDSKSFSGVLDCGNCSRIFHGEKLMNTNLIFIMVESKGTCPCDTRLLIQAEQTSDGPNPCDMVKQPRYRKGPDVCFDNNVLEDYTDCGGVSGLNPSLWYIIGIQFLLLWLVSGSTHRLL
Procedure: (§1) Safety studies were performed by commercial services using their standard protocols. […] Genotoxicity was investigated using the Ames test (Bacterial Reverse Mutation Assay) (Covance Laboratories Ltd, North Yorkshire, England). In vitro mammalian cell micronucleus screening assay was studied in human peripheral blood lymphocytes (BioReliance Corporation, Rockville, USA). Cardiotoxicity was determined against the hERG channel in an automated patch clamp assay using the Qpatch or against the hNaV 1.5, hKV 1.5 and hCaV 1.2 using a manual patch-clamp technique (Metrion Biosciences, Cambridge, UK). Cytotoxicity in human and rat primary hepatocytes was assessed using the CellTiter-Blue assay performed by commercial services (KaLy-Cell). The viability of HepG2 cells was monitored through the addition of 1 mM resazurin. Following 6 h incubation, the relative amount of reduced resazurin was detected in a fluorimeter and compared to the assay controls (vehicle: 0.1% DMSO and positive control: 10 µM puromycin).

[9] = biological target: T2, hNaV 1.5 (Homo sapiens, UniProt Q14524); assay: Manual patch clamp; assay type: cell-based; settings: for Minimum current: single cells and Mean, mean
T2 construct: Metrion Biosciences
Procedure: as §1

[10] = Blood to plasma ratio, rat
[11] = test system: P. falciparum NF54-HGL gametocytes; design: method as in earlier work; settings: ref 15 (Schalkwijk et al.); read-out: Gametocyte IC50; cited from earlier work

C[C@@H](CNC(=O)[C@H](O)C(C)(C)CO)NC(=O)c1cc(F)c(F)cc1F [MMV693183]
B:P [1]: 0.97
Average Papp A to B [2]: 2.9e-06 s⁻¹
Average Papp B to A [2]: 1.35e-05 s⁻¹
Efflux ratio [2]: 4.7
time to parasitemia below the detection limit ([3]; 40 nM (10x IC50)): ≤ 48 h
Average (log parasites +1) ([3]; 24 h): 0.452
Average (log parasites +1) ([3]; 48 h): 0.0
log (parasites +1) ([3]; 48 h): 0.0
parasites ([3]; 48 h): 0
Average (log parasites +1) ([3]; 72h): 0.0
log (parasites +1) ([3]; 72h): 0.0
parasites ([3]; 72h): 0
Average (log parasites +1) ([3]; 96h): 0.0
log (parasites +1) ([3]; 96h): 0.0
parasites ([3]; 96h): 0
Average (log parasites +1) ([3]; 120h): 0.0
log (parasites +1) ([3]; 120h): 0.0
parasites ([3]; 120h): 0
IC50 decrease upon knockdown (low aTc) [4]: 5 fold
cumulative exposure vs predicted human efficacious exposure ([5]; 30 mg/kg/day group): > 30 fold
Liver weight ([5]; 10 and 30 mg/kg/day): Liver weight was unchanged
liver histology ([5]; 10 and 30 mg/kg/day): absence of liver microscopic findings
Liver weight ([5]; DRF 10 mg/kg/day, Females): 6.6517 g
Liver weight ([5]; DRF 10 mg/kg/day, Males): 9.7817 g
Liver weight ([5]; DRF 30 mg/kg/day, Females (two groups)): 6.4437 g and 7.2357 g
Liver weight ([5]; DRF 30 mg/kg/day, Males (two groups)): 10.7203 g and 9.7543 g
Liver weight ([5]; DRF study, females, 10 mg/kg/day, individual animals): 6.951 g and 7.042 g and 5.962 g
Liver weight ([5]; DRF study, females, 30 mg/kg/day (first column headed 30), individual animals, 30 mg/kg/day): 7.24 g and 5.849 g and 6.242 g
Liver weight ([5]; DRF study, females, 30 mg/kg/day (second column headed 30), individual animals, 30 mg/kg/day): 7.466 g and 7.43 g and 6.811 g
Liver weight ([5]; DRF study, males, 10 mg/kg/day, individual animals): 9.171 g and 9.562 g and 10.612 g
Liver weight ([5]; DRF study, males, 30 mg/kg/day (first column headed 30), individual animals, 30 mg/kg/day): 10.621 g and 11.894 g and 9.646 g
Liver weight ([5]; DRF study, males, 30 mg/kg/day (second column headed 30), individual animals, 30 mg/kg/day): 10.364 g and 10.082 g and 8.817 g
NOEL ([5]; eight days): 30 mg/kg/day
decrease in systemic exposure day 7 vs day 1 ([5]; predominantly males at 30 mg/kg/day): up to 4 fold
IC50 [6]: 1000 nM
Compound Remaining (% of 0 min) ([7]; 0 min): 100%
Compound Remaining (% of 0 min) ([7]; 5 min): 92.3%
Compound Remaining (% of 0 min) ([7]; 10 min): 91.7%
Compound Remaining (% of 0 min) ([7]; 20 min): 92.7%
Compound Remaining (% of 0 min) ([7]; 40 min): 85.2%
Compound Remaining (% of 0 min) ([7]; 60 min): 83.9%
Inhibition ([8]; 10 µM): 24.20%
Minimum current ([8]; Cav1.2, 0.3uM): 4.49%
Minimum current ([8]; Cav1.2, 1uM): 7.60%
Minimum current ([8]; Cav1.2, 10uM): 24.20%
IC50 ([8]; hCaV 1.2): > 10 µM
Inhibition ([9]; 10 µM): 1.56%
IC50 ([9]; hNav 1.5): > 10 µM
Minimum current ([9]; hNav1.5, 300nM, P1): 1.33%
Minimum current ([9]; hNav1.5, 300nM, P10): 2.55%
Minimum current ([9]; hNav1.5, 1uM, P10): 0.96%
Minimum current ([9]; hNav1.5, 3uM, P1): -2.90%
Minimum current ([9]; hNav1.5, 3uM, P10): 2.43%
Minimum current ([9]; hNav1.5, 10uM, P1): -1.24%
Minimum current ([9]; hNav1.5, 10uM, P10): 1.56%
B:P [10]: 0.91

CC(CNC(=O)C(O)C(C)(C)CO)NC(=O)CCc1ccccc1F (stereo in doubt) [MMV689258]
IC50 [11]: 12 nM
